Test results as given in patent publication US20260053812A1, “METHODS OF TREATING HYPERTENSION WITH A COMBINATION OF AN ALDOSTERONE SYNTHASE INHIBITOR AND A DIURETIC” (Mineralys Therapeutics, Inc., priority 2022, published 2026).

Assay: Estimated glomerular filtration rate (eGFR, CKD-EPI equation)
Format: in vivo, human

CC(=O)N[C@H]1CC[C@H](NC(=O)CN2CCN(c3nncc(-c4ccc(C)cc4)n3)CC2)CC1 [Compound A HBr]
eGFR mean maximum decline relative to baseline (100 mg QD, Part 1, Week 2): 10.91 mL/min/1.73 m^2
Estimated Glomerular Filtration Rate, mean observed (Part 1, 12.5 mg BID, BL): 81.70 mL/min/1.73 m^2
Estimated Glomerular Filtration Rate, mean change from baseline (Part 1, 12.5 mg BID, Week 1): −2.25 mL/min/1.73 m^2
Estimated Glomerular Filtration Rate, mean observed (Part 1, 12.5 mg BID, Week 1): 79.45 mL/min/1.73 m^2
Estimated Glomerular Filtration Rate, mean change from baseline (Part 1, 12.5 mg BID, Week 2): −3.69 mL/min/1.73 m^2
Estimated Glomerular Filtration Rate, mean observed (Part 1, 12.5 mg BID, Week 2): 78.86 mL/min/1.73 m^2
Estimated Glomerular Filtration Rate, mean change from baseline (Part 1, 12.5 mg BID, Week 3): −5.17 mL/min/1.73 m^2
Estimated Glomerular Filtration Rate, mean observed (Part 1, 12.5 mg BID, Week 3): 77.38 mL/min/1.73 m^2
Estimated Glomerular Filtration Rate, mean change from baseline (Part 1, 12.5 mg BID, Week 4): −6.58 mL/min/1.73 m^2
Estimated Glomerular Filtration Rate, mean observed (Part 1, 12.5 mg BID, Week 4): 76.30 mL/min/1.73 m^2
Estimated Glomerular Filtration Rate, mean change from baseline (Part 1, 12.5 mg BID, Week 5): −7.58 mL/min/1.73 m^2
Estimated Glomerular Filtration Rate, mean observed (Part 1, 12.5 mg BID, Week 5): 73.84 mL/min/1.73 m^2
Estimated Glomerular Filtration Rate, mean change from baseline (Part 1, 12.5 mg BID, Week 6): −6.45 mL/min/1.73 m^2
Estimated Glomerular Filtration Rate, mean observed (Part 1, 12.5 mg BID, Week 6): 74.70 mL/min/1.73 m^2
Estimated Glomerular Filtration Rate, mean change from baseline (Part 1, 12.5 mg BID, Week 7): −7.03 mL/min/1.73 m^2
Estimated Glomerular Filtration Rate, mean observed (Part 1, 12.5 mg BID, Week 7): 75.85 mL/min/1.73 m^2
Estimated Glomerular Filtration Rate, mean change from baseline (Part 1, 12.5 mg BID, Week 8): −6.66 mL/min/1.73 m^2
Estimated Glomerular Filtration Rate, mean observed (Part 1, 12.5 mg BID, Week 8): 76.32 mL/min/1.73 m^2
Estimated Glomerular Filtration Rate, mean observed (Part 1, 12.5 mg QD, BL): 77.87 mL/min/1.73 m^2
Estimated Glomerular Filtration Rate, mean change from baseline (Part 1, 12.5 mg QD, Week 1): −4.30 mL/min/1.73 m^2
Estimated Glomerular Filtration Rate, mean observed (Part 1, 12.5 mg QD, Week 1): 73.57 mL/min/1.73 m^2
Estimated Glomerular Filtration Rate, mean change from baseline (Part 1, 12.5 mg QD, Week 2): −4.87 mL/min/1.73 m^2
Estimated Glomerular Filtration Rate, mean observed (Part 1, 12.5 mg QD, Week 2): 73.00 mL/min/1.73 m^2
Estimated Glomerular Filtration Rate, mean change from baseline (Part 1, 12.5 mg QD, Week 3): −2.05 mL/min/1.73 m^2
Estimated Glomerular Filtration Rate, mean observed (Part 1, 12.5 mg QD, Week 3): 77.21 mL/min/1.73 m^2
Estimated Glomerular Filtration Rate, mean change from baseline (Part 1, 12.5 mg QD, Week 4): −5.45 mL/min/1.73 m^2
Estimated Glomerular Filtration Rate, mean observed (Part 1, 12.5 mg QD, Week 4): 73.40 mL/min/1.73 m^2
Estimated Glomerular Filtration Rate, mean change from baseline (Part 1, 12.5 mg QD, Week 5): −3.60 mL/min/1.73 m^2
Estimated Glomerular Filtration Rate, mean observed (Part 1, 12.5 mg QD, Week 5): 75.25 mL/min/1.73 m^2
Estimated Glomerular Filtration Rate, mean change from baseline (Part 1, 12.5 mg QD, Week 6): −6.28 mL/min/1.73 m^2
Estimated Glomerular Filtration Rate, mean observed (Part 1, 12.5 mg QD, Week 6): 73.39 mL/min/1.73 m^2
Estimated Glomerular Filtration Rate, mean change from baseline (Part 1, 12.5 mg QD, Week 7): −7.17 mL/min/1.73 m^2
Estimated Glomerular Filtration Rate, mean observed (Part 1, 12.5 mg QD, Week 7): 72.50 mL/min/1.73 m^2
Estimated Glomerular Filtration Rate, mean change from baseline (Part 1, 12.5 mg QD, Week 8): −3.67 mL/min/1.73 m^2
Estimated Glomerular Filtration Rate, mean observed (Part 1, 12.5 mg QD, Week 8): 76.00 mL/min/1.73 m^2
Estimated Glomerular Filtration Rate, mean observed (Part 1, 25 mg BID, BL): 80.85 mL/min/1.73 m^2
Estimated Glomerular Filtration Rate, mean change from baseline (Part 1, 25 mg BID, Week 1): −6.85 mL/min/1.73 m^2
Estimated Glomerular Filtration Rate, mean observed (Part 1, 25 mg BID, Week 1): 74.00 mL/min/1.73 m^2
Estimated Glomerular Filtration Rate, mean change from baseline (Part 1, 25 mg BID, Week 2): −5.42 mL/min/1.73 m^2
Estimated Glomerular Filtration Rate, mean observed (Part 1, 25 mg BID, Week 2): 75.43 mL/min/1.73 m^2
Estimated Glomerular Filtration Rate, mean change from baseline (Part 1, 25 mg BID, Week 3): −5.90 mL/min/1.73 m^2
Estimated Glomerular Filtration Rate, mean observed (Part 1, 25 mg BID, Week 3): 75.07 mL/min/1.73 m^2
Estimated Glomerular Filtration Rate, mean change from baseline (Part 1, 25 mg BID, Week 4): −6.69 mL/min/1.73 m^2
Estimated Glomerular Filtration Rate, mean observed (Part 1, 25 mg BID, Week 4): 73.48 mL/min/1.73 m^2
Estimated Glomerular Filtration Rate, mean change from baseline (Part 1, 25 mg BID, Week 5): −7.41 mL/min/1.73 m^2
Estimated Glomerular Filtration Rate, mean observed (Part 1, 25 mg BID, Week 5): 73.25 mL/min/1.73 m^2
Estimated Glomerular Filtration Rate, mean change from baseline (Part 1, 25 mg BID, Week 6): −8.02 mL/min/1.73 m^2
Estimated Glomerular Filtration Rate, mean observed (Part 1, 25 mg BID, Week 6): 72.64 mL/min/1.73 m^2
Estimated Glomerular Filtration Rate, mean change from baseline (Part 1, 25 mg BID, Week 7): −7.85 mL/min/1.73 m^2
Estimated Glomerular Filtration Rate, mean observed (Part 1, 25 mg BID, Week 7): 72.22 mL/min/1.73 m^2
Estimated Glomerular Filtration Rate, mean change from baseline (Part 1, 25 mg BID, Week 8): −5.55 mL/min/1.73 m^2
Estimated Glomerular Filtration Rate, mean observed (Part 1, 25 mg BID, Week 8): 75.11 mL/min/1.73 m^2
Estimated Glomerular Filtration Rate, mean observed (Part 1, 50 mg QD, BL): 77.18 mL/min/1.73 m^2
Estimated Glomerular Filtration Rate, mean change from baseline (Part 1, 50 mg QD, Week 1): −2.96 mL/min/1.73 m^2
Estimated Glomerular Filtration Rate, mean observed (Part 1, 50 mg QD, Week 1): 74.21 mL/min/1.73 m^2
Estimated Glomerular Filtration Rate, mean change from baseline (Part 1, 50 mg QD, Week 2): −4.32 mL/min/1.73 m^2
Estimated Glomerular Filtration Rate, mean observed (Part 1, 50 mg QD, Week 2): 72.86 mL/min/1.73 m^2
Estimated Glomerular Filtration Rate, mean change from baseline (Part 1, 50 mg QD, Week 3): −2.35 mL/min/1.73 m^2
Estimated Glomerular Filtration Rate, mean observed (Part 1, 50 mg QD, Week 3): 74.81 mL/min/1.73 m^2
Estimated Glomerular Filtration Rate, mean change from baseline (Part 1, 50 mg QD, Week 4): −3.61 mL/min/1.73 m^2
Estimated Glomerular Filtration Rate, mean observed (Part 1, 50 mg QD, Week 4): 73.63 mL/min/1.73 m^2
Estimated Glomerular Filtration Rate, mean change from baseline (Part 1, 50 mg QD, Week 5): −4.10 mL/min/1.73 m^2
Estimated Glomerular Filtration Rate, mean observed (Part 1, 50 mg QD, Week 5): 70.58 mL/min/1.73 m^2
Estimated Glomerular Filtration Rate, mean change from baseline (Part 1, 50 mg QD, Week 6): −2.83 mL/min/1.73 m^2
Estimated Glomerular Filtration Rate, mean observed (Part 1, 50 mg QD, Week 6): 74.63 mL/min/1.73 m^2
Estimated Glomerular Filtration Rate, mean change from baseline (Part 1, 50 mg QD, Week 7): −5.46 mL/min/1.73 m^2
Estimated Glomerular Filtration Rate, mean observed (Part 1, 50 mg QD, Week 7): 69.68 mL/min/1.73 m^2
Estimated Glomerular Filtration Rate, mean change from baseline (Part 1, 50 mg QD, Week 8): −4.64 mL/min/1.73 m^2
Estimated Glomerular Filtration Rate, mean observed (Part 1, 50 mg QD, Week 8): 72.54 mL/min/1.73 m^2
Estimated Glomerular Filtration Rate, mean observed (Part 1, 100 mg QD, BL): 77.35 mL/min/1.73 m^2
Estimated Glomerular Filtration Rate, mean change from baseline (Part 1, 100 mg QD, Week 1): −6.80 mL/min/1.73 m^2
Estimated Glomerular Filtration Rate, mean observed (Part 1, 100 mg QD, Week 1): 70.81 mL/min/1.73 m^2
Estimated Glomerular Filtration Rate, mean change from baseline (Part 1, 100 mg QD, Week 2): −10.91 mL/min/1.73 m^2
Estimated Glomerular Filtration Rate, mean observed (Part 1, 100 mg QD, Week 2): 65.56 mL/min/1.73 m^2
Estimated Glomerular Filtration Rate, mean change from baseline (Part 1, 100 mg QD, Week 3): −9.24 mL/min/1.73 m^2
Estimated Glomerular Filtration Rate, mean observed (Part 1, 100 mg QD, Week 3): 67.22 mL/min/1.73 m^2
Estimated Glomerular Filtration Rate, mean change from baseline (Part 1, 100 mg QD, Week 4): −9.46 mL/min/1.73 m^2
Estimated Glomerular Filtration Rate, mean observed (Part 1, 100 mg QD, Week 4): 67.23 mL/min/1.73 m^2
Estimated Glomerular Filtration Rate, mean change from baseline (Part 1, 100 mg QD, Week 5): −10.50 mL/min/1.73 m^2
Estimated Glomerular Filtration Rate, mean observed (Part 1, 100 mg QD, Week 5): 66.19 mL/min/1.73 m^2
Estimated Glomerular Filtration Rate, mean change from baseline (Part 1, 100 mg QD, Week 6): −9.94 mL/min/1.73 m^2
Estimated Glomerular Filtration Rate, mean observed (Part 1, 100 mg QD, Week 6): 66.19 mL/min/1.73 m^2
Estimated Glomerular Filtration Rate, mean change from baseline (Part 1, 100 mg QD, Week 7): −9.50 mL/min/1.73 m^2
Estimated Glomerular Filtration Rate, mean observed (Part 1, 100 mg QD, Week 7): 66.96 mL/min/1.73 m^2
Estimated Glomerular Filtration Rate, mean change from baseline (Part 1, 100 mg QD, Week 8): −7.83 mL/min/1.73 m^2
Estimated Glomerular Filtration Rate, mean observed (Part 1, 100 mg QD, Week 8): 68.42 mL/min/1.73 m^2
Estimated Glomerular Filtration Rate, mean observed (Part 2, 100 mg QD, BL): 79.90 mL/min/1.73 m^2
Estimated Glomerular Filtration Rate, mean change from baseline (Part 2, 100 mg QD, Week 1): −9.65 mL/min/1.73 m^2
Estimated Glomerular Filtration Rate, mean observed (Part 2, 100 mg QD, Week 1): 70.73 mL/min/1.73 m^2
Estimated Glomerular Filtration Rate, mean change from baseline (Part 2, 100 mg QD, Week 2): −8.05 mL/min/1.73 m^2
Estimated Glomerular Filtration Rate, mean observed (Part 2, 100 mg QD, Week 2): 72.07 mL/min/1.73 m^2
Estimated Glomerular Filtration Rate, mean change from baseline (Part 2, 100 mg QD, Week 3): −7.33 mL/min/1.73 m^2
Estimated Glomerular Filtration Rate, mean observed (Part 2, 100 mg QD, Week 3): 72.69 mL/min/1.73 m^2
Estimated Glomerular Filtration Rate, mean change from baseline (Part 2, 100 mg QD, Week 4): −7.20 mL/min/1.73 m^2
Estimated Glomerular Filtration Rate, mean observed (Part 2, 100 mg QD, Week 4): 72.92 mL/min/1.73 m^2
Estimated Glomerular Filtration Rate, mean change from baseline (Part 2, 100 mg QD, Week 5): −8.69 mL/min/1.73 m^2
Estimated Glomerular Filtration Rate, mean observed (Part 2, 100 mg QD, Week 5): 71.23 mL/min/1.73 m^2
Estimated Glomerular Filtration Rate, mean change from baseline (Part 2, 100 mg QD, Week 6): −10.87 mL/min/1.73 m^2
Estimated Glomerular Filtration Rate, mean observed (Part 2, 100 mg QD, Week 6): 68.04 mL/min/1.73 m^2
Estimated Glomerular Filtration Rate, mean change from baseline (Part 2, 100 mg QD, Week 7): −7.34 mL/min/1.73 m^2
Estimated Glomerular Filtration Rate, mean observed (Part 2, 100 mg QD, Week 7): 72.82 mL/min/1.73 m^2
Estimated Glomerular Filtration Rate, mean change from baseline (Part 2, 100 mg QD, Week 8): −7.95 mL/min/1.73 m^2
Estimated Glomerular Filtration Rate, mean observed (Part 2, 100 mg QD, Week 8): 72.43 mL/min/1.73 m^2
Change in estimated glomerular filtration rate (eGFR) (across dosing cohorts): dose-dependent and reversible reduction
